Assay results from the kinase profiling compilation of Christmann-Franck et al. (2016).

Key:
Test in all cases: radiometric filter-binding kinase assay
[1] = test system: PAK2 (human), Q13177 [T402E]
[2] = biological target: PAK6 (human) (UniProt Q9NQU5)
[3] = biological target: RPS6KA3 KD1 KD2 (human) (UniProt P51812); settings: compound 1000.0 µM
[4] = biological target: IKBKE (human) (UniProt Q14164)
[5] = biological target: CLK2 (human) (UniProt P49760)
[6] = biological target: CSNK1D (human) (UniProt P48730)
[7] = biological target: CAMKK2 (human) (UniProt Q96RR4)
[8] = biological target: MAPKAPK2 (human) (UniProt P49137)
[9] = biological target: CHEK1 (human) (UniProt O14757)
[10] = biological target: HIPK3 (human) (UniProt Q9H422)
[11] = biological target: NEK2 (human) (UniProt P51955)
[12] = biological target: EPHA4 (human) (UniProt P54764)
[13] = biological target: MAPK12 (human) (UniProt P53778)
[14] = biological target: SRPK1 (human) (UniProt Q96SB4)
[15] = biological target: PAK7 (human) (UniProt Q9P286)
[16] = biological target: IGF1R (human) (UniProt P08069)
[17] = biological target: MARK2 (human) (UniProt Q7KZI7)
[18] = biological target: MAPK14 (human) (UniProt Q16539)
[19] = biological target: PLK1 (human) (UniProt P53350)
[20] = biological target: DYRK1A (human) (UniProt Q13627)
[21] = test system: AKT2 (human), P31751 [S474D]
[22] = biological target: IRAK4 (human) (UniProt Q9NWZ3)
[23] = biological target: PIM3 (human) (UniProt Q86V86)
[24] = biological target: PAK4 (human) (UniProt O96013)
[25] = biological target: NEK6 (human) (UniProt Q9HC98); settings: compound 10.0 µM
[26] = biological target: MST4 (human) (UniProt Q9P289)
[27] = biological target: MARK1 (human) (UniProt Q9P0L2)
[28] = biological target: PIM2 (human) (UniProt Q9P1W9)
[29] = test system: SGK1 (human), O00141 [S422D]
[30] = biological target: PKN2 (human) (UniProt Q16513)
[31] = biological target: RIPK2 (human) (UniProt O43353)
[32] = biological target: MAPK3 (human) (UniProt P27361)
[33] = biological target: RPS6KA5 KD1 KD2 (human) (UniProt O75582)
[34] = biological target: MAP3K7 TAB1 (human) (UniProt Q15750+O43318)
[35] = biological target: MAPK15 (human) (UniProt Q8TD08)

Chain of MAP3K7 TAB1 (human) (O43318 whole entry, looked up): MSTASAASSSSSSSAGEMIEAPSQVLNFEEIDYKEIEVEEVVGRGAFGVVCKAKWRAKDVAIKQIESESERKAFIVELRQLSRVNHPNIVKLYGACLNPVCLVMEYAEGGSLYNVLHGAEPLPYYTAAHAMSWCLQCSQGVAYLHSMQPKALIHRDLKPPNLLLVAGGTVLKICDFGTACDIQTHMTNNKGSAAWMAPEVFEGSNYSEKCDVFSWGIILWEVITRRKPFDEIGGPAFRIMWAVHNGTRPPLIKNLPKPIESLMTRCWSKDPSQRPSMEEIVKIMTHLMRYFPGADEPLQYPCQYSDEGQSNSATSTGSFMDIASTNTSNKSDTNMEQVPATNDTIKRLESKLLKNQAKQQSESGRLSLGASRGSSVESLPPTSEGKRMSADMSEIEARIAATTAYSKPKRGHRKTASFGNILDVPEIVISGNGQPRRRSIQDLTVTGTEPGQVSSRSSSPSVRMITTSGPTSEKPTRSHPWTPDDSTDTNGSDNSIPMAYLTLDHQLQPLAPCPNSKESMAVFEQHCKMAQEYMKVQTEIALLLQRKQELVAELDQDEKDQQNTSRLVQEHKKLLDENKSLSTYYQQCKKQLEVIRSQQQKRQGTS
Chain of MAP3K7 TAB1 (human) (Q15750 whole entry, looked up): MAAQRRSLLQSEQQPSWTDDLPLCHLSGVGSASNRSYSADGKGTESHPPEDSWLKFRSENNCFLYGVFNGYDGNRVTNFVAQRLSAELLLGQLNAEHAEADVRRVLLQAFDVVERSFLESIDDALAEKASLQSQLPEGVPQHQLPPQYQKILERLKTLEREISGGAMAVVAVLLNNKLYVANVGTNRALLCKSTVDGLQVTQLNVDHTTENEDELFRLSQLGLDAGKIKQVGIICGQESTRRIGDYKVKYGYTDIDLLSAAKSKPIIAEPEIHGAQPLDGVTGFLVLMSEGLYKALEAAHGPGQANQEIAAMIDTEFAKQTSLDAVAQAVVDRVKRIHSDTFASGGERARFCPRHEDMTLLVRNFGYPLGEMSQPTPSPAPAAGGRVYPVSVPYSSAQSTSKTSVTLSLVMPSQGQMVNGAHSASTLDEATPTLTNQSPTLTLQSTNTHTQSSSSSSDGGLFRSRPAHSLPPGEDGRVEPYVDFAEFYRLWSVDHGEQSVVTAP
Chain of CLK2 (human) (P49760 whole entry, looked up): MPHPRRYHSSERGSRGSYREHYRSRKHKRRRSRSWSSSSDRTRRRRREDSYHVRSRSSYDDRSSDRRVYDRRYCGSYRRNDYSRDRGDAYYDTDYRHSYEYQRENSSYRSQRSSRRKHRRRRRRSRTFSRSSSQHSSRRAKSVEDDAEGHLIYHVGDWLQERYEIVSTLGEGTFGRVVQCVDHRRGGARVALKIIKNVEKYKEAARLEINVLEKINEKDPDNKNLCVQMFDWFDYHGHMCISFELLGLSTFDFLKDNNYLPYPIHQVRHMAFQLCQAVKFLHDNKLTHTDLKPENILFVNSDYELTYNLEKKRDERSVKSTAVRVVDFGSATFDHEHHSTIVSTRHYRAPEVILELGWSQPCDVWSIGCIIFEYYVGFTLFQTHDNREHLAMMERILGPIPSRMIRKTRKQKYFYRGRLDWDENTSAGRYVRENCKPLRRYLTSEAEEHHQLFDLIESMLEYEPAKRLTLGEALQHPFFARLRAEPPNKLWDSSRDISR
Chain of NEK2 (human) (P51955 whole entry, looked up): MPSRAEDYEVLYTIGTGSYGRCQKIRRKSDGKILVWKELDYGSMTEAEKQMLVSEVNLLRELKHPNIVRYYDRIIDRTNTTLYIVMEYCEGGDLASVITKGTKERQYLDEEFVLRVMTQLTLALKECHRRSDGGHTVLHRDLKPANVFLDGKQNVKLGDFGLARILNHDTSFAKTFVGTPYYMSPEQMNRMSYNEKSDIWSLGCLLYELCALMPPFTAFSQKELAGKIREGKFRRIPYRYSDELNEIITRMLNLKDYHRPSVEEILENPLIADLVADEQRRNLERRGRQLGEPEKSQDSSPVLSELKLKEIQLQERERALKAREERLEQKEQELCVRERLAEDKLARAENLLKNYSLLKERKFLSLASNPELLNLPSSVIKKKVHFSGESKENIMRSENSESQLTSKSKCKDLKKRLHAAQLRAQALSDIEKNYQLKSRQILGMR
Chain of EPHA4 (human) (P54764 whole entry, looked up): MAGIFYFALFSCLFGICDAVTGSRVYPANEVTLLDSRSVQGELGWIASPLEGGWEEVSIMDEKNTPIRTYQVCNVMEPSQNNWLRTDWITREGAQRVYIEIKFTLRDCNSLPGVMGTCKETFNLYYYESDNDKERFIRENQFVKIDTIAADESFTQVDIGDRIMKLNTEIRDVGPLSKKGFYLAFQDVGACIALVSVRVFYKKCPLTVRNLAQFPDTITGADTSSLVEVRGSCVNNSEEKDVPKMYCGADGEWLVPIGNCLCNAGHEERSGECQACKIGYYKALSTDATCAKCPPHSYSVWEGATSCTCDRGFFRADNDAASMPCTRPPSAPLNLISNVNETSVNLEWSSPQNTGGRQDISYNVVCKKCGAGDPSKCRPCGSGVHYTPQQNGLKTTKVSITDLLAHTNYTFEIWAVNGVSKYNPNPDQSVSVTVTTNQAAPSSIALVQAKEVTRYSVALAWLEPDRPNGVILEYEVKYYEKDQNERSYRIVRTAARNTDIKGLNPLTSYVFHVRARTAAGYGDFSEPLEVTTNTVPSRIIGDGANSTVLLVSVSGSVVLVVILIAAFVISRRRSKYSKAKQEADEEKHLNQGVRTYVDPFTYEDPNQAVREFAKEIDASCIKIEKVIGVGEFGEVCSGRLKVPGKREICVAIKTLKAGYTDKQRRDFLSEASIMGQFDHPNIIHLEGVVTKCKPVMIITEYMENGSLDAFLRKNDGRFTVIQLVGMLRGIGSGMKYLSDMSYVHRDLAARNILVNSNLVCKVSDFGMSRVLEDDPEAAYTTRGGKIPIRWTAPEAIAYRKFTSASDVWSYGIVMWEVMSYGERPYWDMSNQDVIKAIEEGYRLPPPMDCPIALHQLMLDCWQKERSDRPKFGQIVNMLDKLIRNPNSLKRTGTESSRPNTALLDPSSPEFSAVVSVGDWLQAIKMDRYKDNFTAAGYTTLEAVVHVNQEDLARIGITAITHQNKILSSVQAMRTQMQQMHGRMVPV
Chain of MAPK14 (human) (Q16539 whole entry, looked up): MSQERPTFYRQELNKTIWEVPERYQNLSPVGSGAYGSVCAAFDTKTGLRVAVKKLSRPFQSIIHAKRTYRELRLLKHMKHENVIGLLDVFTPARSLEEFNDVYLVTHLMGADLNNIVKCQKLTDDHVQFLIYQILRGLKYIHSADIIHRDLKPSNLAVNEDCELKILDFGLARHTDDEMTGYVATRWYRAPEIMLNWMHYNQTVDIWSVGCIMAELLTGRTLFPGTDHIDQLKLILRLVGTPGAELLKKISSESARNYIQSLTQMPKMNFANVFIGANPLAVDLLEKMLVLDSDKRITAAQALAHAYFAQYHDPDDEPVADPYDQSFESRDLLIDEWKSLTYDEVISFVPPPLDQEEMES
Chain of HIPK3 (human) (Q9H422 whole entry, looked up): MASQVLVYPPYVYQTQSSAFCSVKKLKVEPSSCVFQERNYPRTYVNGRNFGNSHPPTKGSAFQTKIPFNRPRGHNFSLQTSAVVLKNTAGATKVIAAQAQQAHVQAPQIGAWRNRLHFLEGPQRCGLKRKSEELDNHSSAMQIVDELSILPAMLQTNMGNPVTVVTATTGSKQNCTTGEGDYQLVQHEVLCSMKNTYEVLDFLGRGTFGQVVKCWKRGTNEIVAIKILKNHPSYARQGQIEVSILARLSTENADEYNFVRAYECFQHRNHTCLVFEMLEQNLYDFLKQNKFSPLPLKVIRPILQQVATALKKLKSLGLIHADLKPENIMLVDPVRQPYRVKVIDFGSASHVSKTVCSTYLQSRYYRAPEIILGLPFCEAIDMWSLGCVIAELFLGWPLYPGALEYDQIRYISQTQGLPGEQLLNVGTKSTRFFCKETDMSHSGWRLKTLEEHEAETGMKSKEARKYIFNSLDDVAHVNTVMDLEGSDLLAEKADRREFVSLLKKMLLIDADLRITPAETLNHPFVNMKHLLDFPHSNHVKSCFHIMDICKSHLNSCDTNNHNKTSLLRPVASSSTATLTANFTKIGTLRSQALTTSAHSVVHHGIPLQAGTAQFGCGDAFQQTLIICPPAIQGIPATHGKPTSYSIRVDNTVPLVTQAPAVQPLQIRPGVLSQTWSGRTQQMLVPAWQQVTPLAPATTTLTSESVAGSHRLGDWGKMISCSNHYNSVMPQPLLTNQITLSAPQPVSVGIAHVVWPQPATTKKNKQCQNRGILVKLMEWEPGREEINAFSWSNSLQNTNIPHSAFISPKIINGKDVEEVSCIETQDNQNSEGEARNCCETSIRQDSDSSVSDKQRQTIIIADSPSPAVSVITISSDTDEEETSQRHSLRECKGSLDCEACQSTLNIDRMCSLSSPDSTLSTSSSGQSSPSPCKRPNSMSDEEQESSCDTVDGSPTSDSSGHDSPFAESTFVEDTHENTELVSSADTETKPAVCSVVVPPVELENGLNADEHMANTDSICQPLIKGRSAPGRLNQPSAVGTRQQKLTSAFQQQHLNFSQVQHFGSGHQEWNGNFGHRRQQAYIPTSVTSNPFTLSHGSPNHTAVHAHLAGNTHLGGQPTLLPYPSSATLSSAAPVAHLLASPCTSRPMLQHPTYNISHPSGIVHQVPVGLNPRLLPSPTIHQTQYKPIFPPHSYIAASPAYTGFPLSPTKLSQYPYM
Chain of MAPK3 (human) (P27361 whole entry, looked up): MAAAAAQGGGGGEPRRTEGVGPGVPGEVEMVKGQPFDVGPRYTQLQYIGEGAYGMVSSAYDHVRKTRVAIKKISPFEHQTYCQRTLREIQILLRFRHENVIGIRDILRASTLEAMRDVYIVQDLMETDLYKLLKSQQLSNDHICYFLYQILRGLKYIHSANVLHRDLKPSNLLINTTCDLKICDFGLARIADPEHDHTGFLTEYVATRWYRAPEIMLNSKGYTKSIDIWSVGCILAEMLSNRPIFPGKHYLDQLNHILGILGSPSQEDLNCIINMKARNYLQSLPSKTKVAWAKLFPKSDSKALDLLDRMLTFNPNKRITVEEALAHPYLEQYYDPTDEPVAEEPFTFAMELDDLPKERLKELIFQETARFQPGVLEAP

COC(=O)/C=C/C(=O)OC
residual activity ([1]; compound 10.0 µM): 101%
residual activity ([1]; compound 100.0 µM): 104%
residual activity ([1]; compound 1000.0 µM): 86%
residual activity ([2]; compound 10.0 µM): 90%
residual activity ([2]; compound 100.0 µM): 98%
residual activity ([2]; compound 1000.0 µM): 103%
residual activity [3]: 117%
residual activity ([4]; compound 10.0 µM): 80%
residual activity ([4]; compound 100.0 µM): 96%
residual activity ([4]; compound 1000.0 µM): 93%
residual activity ([5]; compound 10.0 µM): 92%
residual activity ([5]; compound 100.0 µM): 100%
residual activity ([5]; compound 1000.0 µM): 101%
residual activity ([6]; compound 10.0 µM): 88%
residual activity ([6]; compound 100.0 µM): 94%
residual activity ([6]; compound 1000.0 µM): 105%
residual activity ([7]; compound 100.0 µM): 101%
residual activity ([7]; compound 1000.0 µM): 93%
residual activity ([8]; compound 10.0 µM): 92%
residual activity ([8]; compound 100.0 µM): 86%
residual activity ([8]; compound 1000.0 µM): 93%
residual activity ([9]; compound 100.0 µM): 93%
residual activity ([9]; compound 1000.0 µM): 97%
residual activity ([10]; compound 10.0 µM): 81%
residual activity ([10]; compound 100.0 µM): 94%
residual activity ([10]; compound 1000.0 µM): 86%
residual activity ([11]; compound 10.0 µM): 100%
residual activity ([11]; compound 100.0 µM): 100%
residual activity ([11]; compound 1000.0 µM): 102%
residual activity ([12]; compound 10.0 µM): 98%
residual activity ([12]; compound 100.0 µM): 105%
residual activity ([12]; compound 1000.0 µM): 119%
residual activity ([13]; compound 10.0 µM): 87%
residual activity ([13]; compound 100.0 µM): 96%
residual activity ([13]; compound 1000.0 µM): 104%
residual activity ([14]; compound 10.0 µM): 91%
residual activity ([14]; compound 100.0 µM): 101%
residual activity ([14]; compound 1000.0 µM): 103%
residual activity ([15]; compound 10.0 µM): 87%
residual activity ([15]; compound 100.0 µM): 125%
residual activity ([15]; compound 1000.0 µM): 93%
residual activity ([16]; compound 100.0 µM): 92%
residual activity ([16]; compound 1000.0 µM): 117%
residual activity ([17]; compound 10.0 µM): 91%
residual activity ([17]; compound 100.0 µM): 108%
residual activity ([18]; compound 10.0 µM): 90%
residual activity ([18]; compound 100.0 µM): 99%
residual activity ([18]; compound 1000.0 µM): 106%
residual activity ([19]; compound 10.0 µM): 94%
residual activity ([19]; compound 100.0 µM): 100%
residual activity ([19]; compound 1000.0 µM): 91%
residual activity ([20]; compound 10.0 µM): 105%
residual activity ([20]; compound 100.0 µM): 109%
residual activity ([20]; compound 1000.0 µM): 113%
residual activity ([21]; compound 10.0 µM): 81%
residual activity ([21]; compound 100.0 µM): 93%
residual activity ([21]; compound 1000.0 µM): 106%
residual activity ([22]; compound 10.0 µM): 88%
residual activity ([22]; compound 100.0 µM): 104%
residual activity ([22]; compound 1000.0 µM): 117%
residual activity ([23]; compound 10.0 µM): 96%
residual activity ([23]; compound 100.0 µM): 106%
residual activity ([23]; compound 1000.0 µM): 92%
residual activity ([24]; compound 10.0 µM): 76%
residual activity ([24]; compound 100.0 µM): 88%
residual activity ([24]; compound 1000.0 µM): 95%
residual activity [25]: 103%
residual activity ([26]; compound 10.0 µM): 95%
residual activity ([26]; compound 100.0 µM): 106%
residual activity ([27]; compound 10.0 µM): 98%
residual activity ([27]; compound 100.0 µM): 115%
residual activity ([27]; compound 1000.0 µM): 108%
residual activity ([28]; compound 10.0 µM): 117%
residual activity ([28]; compound 100.0 µM): 109%
residual activity ([28]; compound 1000.0 µM): 116%
residual activity ([29]; compound 10.0 µM): 93%
residual activity ([29]; compound 100.0 µM): 96%
residual activity ([29]; compound 1000.0 µM): 100%
residual activity ([30]; compound 100.0 µM): 108%
residual activity ([30]; compound 1000.0 µM): 84%
residual activity ([31]; compound 10.0 µM): 93%
residual activity ([31]; compound 100.0 µM): 104%
residual activity ([31]; compound 1000.0 µM): 111%
residual activity ([32]; compound 10.0 µM): 95%
residual activity ([32]; compound 100.0 µM): 99%
residual activity ([32]; compound 1000.0 µM): 100%
residual activity ([33]; compound 10.0 µM): 107%
residual activity ([33]; compound 100.0 µM): 105%
residual activity ([34]; compound 10.0 µM): 105%
residual activity ([34]; compound 100.0 µM): 115%
residual activity ([34]; compound 1000.0 µM): 103%
residual activity ([35]; compound 10.0 µM): 89%
residual activity ([35]; compound 100.0 µM): 100%
residual activity ([35]; compound 1000.0 µM): 96%
